This is an account of results in patent US8492425B2, “5-methyl-1-(naphthalen-2-yl)-1H-pyrazoles useful as sigma receptor inhibitors” (Laboratories Del Dr. Esteve, S.A., priority 2008, dated 2013).

Molecules are shown by their SMILES. Read-outs that look alike come from different tables or passages of the source. Bounds are passed on as bounds.

Data set [1] deals with T1, sigma-1 receptor (Cavia porcellus, UniProt Q60492).
T1 construct: from tissue; host or cells: guinea pig brain membranes
Nature of the data set: Sigma-1 receptor binding assay, [3H]-(+)-pentazocine displacement in guinea pig brain membranes. The note with it: for IC50: radioligand [3H]-(+)-pentazocine 3.0 nM, 150 min at 37° C., read-out: IC50 (inhibitory concentration); for Ki: read-out: Ki (binding affinity).

T1 sequence (Q60492 whole entry): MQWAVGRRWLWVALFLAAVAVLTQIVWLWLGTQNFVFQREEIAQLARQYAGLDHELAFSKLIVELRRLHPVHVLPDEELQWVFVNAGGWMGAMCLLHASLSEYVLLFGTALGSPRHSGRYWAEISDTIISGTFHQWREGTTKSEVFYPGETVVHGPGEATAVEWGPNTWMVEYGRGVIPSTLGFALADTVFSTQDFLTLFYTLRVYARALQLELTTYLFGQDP

In the case of `Cc1cc(OCC[N+]2([O-])CCOCC2)nn1-c1ccc2ccccc2c1` [Compound 6, 4-(2-(5-methyl-1-(naphthalen-2-yl)-1H-pyrazol-3-yloxy)ethyl)morpholine 4-oxide], the IC50 in data set [1] (guinea pig brain membranes) is above 1000 nM. The Ki is the equilibrium dissociation constant of an inhibitor or competing ligand from its target. Regarding `Cc1cc(OCCNCCO)nn1-c1ccc2ccccc2c1` [Compound 5, 2-(2-(5-methyl-1-(naphthalen-2-yl)-1H-pyrazol-3-yloxy)ethylamino)ethanol chlorhydrate], in data set [1] (guinea pig brain membranes, [3H]-(+)-pentazocine 3.0 nM, calculated from IC50 by the Cheng-Prussof equation), the Ki was 102 nM. Consider `Cc1cc(OCCN2CCOCC2)nn1-c1ccc2cc(O)ccc2c1` [Compound 2, 4-{2-[1-(6-hydroxynaphthalen-2-yl)-5-methyl-1H-pyrazol-3-yloxy]ethyl}morpholine chlorhydrate], for which the IC50 in data set [1] (guinea pig brain membranes) is above 1000 nM. With `Cc1cc(OCCN2CCOCC2)nn1-c1ccc2ccc(O)cc2c1` [Compound 4, 4-{2-[1-(7-hydroxynaphthalen-2-yl)-5-methyl-1H-pyrazol-3-yloxy]ethyl}morpholine chlorhydrate], the IC50 in data set [1] (guinea pig brain membranes) was above 1000 nM.

For `Cc1cc(OCCN2CCOCC2)nn1-c1ccc2c(O)cccc2c1` [Compound 3, 4-{2-[1-(5-hydroxynaphthalen-2-yl)-5-methyl-1H-pyrazol-3-yloxy]ethyl}morpholine], the Ki in data set [1] worked out at 329 nM. Take `Cc1cc(OCCN2CCOCC2)nn1-c1ccc2c(c1)C=CC(O)C2O` (stereo not shown) [Compound 1, 6-(5-methyl-3-(2-morpholinoethoxy)-1H-pyrazol-1-yl)-1,2-dihydronaphthalene-1,2-diol]: the IC50 in data set [1] (guinea pig brain membranes) was above 1000 nM. What is called melting point is the temperature, or range, at which the solid turns liquid. For the compound `Cc1cc(OCCN2CCOCC2)nn1-c1ccc2ccc(O)cc2c1` (hydrate or solvate) [Compound 4, 4-{2-[1-(7-hydroxynaphthalen-2-yl)-5-methyl-1H-pyrazol-3-yloxy]ethyl}morpholine chlorhydrate], the melting point was 103 to 107 °C.
